In patent US20210275419A1, “Personal Care Compositions” (Colgate-Palmolive Company, priority 2020, published 2021):

System: tyrosinase
Test: tyrosinase inhibitor screening kit (Sigma Aldrich, MAK 257 Kit)
Format: biochemical
Details: Example 4; 0.156 wt. %
Experimental: (§1) The anti-tyrosinase activity of an exemplary composition of the present invention was compared to the anti-tyrosinase activity of individual short chain fatty acids. Assays were performed using a tyrosinase inhibitor screening kit from Sigma Aldrich; and following the manufacturer's protocol. The results of these experiments are described in Table 1 (below).
as §1, with “Aldrich (MAK 257 Kit);” for “Aldrich;”, “4” for “1”, “(below). […]” for “(below).”
Peels were diluted 1000× in buffer to prepare 0.1% working stock. […] The pH of all test samples and dilutions was measured before and after tyrosinase assay to exclude any effect of acid on the enzyme activity. […] LMP peels containing various concentrations of pyruvic acid at pH 2.5 (“R1 Peels”); LMP peels which were identically formulated to the R1 Peels, but with pH buffered to 3.6 (“R2 Peels”); and LMP′ peels which were identically formulated to the R2 Peels, other than the replacement of pyruvic acid with sodium pyruvate (“R3 Peels”), were all evaluated.

% Tyrosinase Inhibition: 0.06%
SMILES: O=C(O)C(O)c1ccccc1 (stereo not shown) [Mandelic Acid (M), Mandelic Acid]
